Measurements: the supplement of paper PMC10307832

Assays:
Test in all cases: relative viability (nuclei count vs DMSO), 5 days (fraction); higher = more cells survive
[1] = compound: C1/C(=C\C2=CC=CS2)/C(=O)/C(=C/C3=CC=CS3)/C1 + Nc1nc2[nH]cc(CCc3ccc(C(=O)N[C@@H](CCC(=O)O)C(=O)O)cc3)c2c(=O)[nH]1 [Pemetrexed] (partner 0.2 µM)
Summary of the method: (§1)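 Lung cancer cell lines were seeded in 1536-well plates and dosed by pin tool the next day, with either a single drug or a fixed anchor-drug dose combined with five library-drug doses (not always all listed) spaced in √10 steps. Five days later, one step fixed the cells and stained their nuclei (final 0.05% Triton X-100, 1% formaldehyde, 1 ug/ml Hoechst), and nuclei were counted on 4× images. Relative viability is the nuclei count in treated wells divided by the count in vehicle wells, and each value is the median of duplicate plates.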

TPCA-1 + Bortezomib = compound: C1=CC(=CC=C1C2=CC(=C(S2)NC(=O)N)C(=O)N)F [TPCA-1] + CC(C)C[C@H](NC(=O)[C@H](Cc1ccccc1)NC(=O)c1cnccn1)B(O)O [Bortezomib] (partner 0.002 µM)
Summary of the method: as §1

TPCA-1 + Luminespib = compound: C1=CC(=CC=C1C2=CC(=C(S2)NC(=O)N)C(=O)N)F [TPCA-1] + CCNC(=O)c1noc(-c2cc(C(C)C)c(O)cc2O)c1-c1ccc(CN2CCOCC2)cc1 [Luminespib] (partner 0.01 µM)
Summary of the method: as §1

[2] = compound: C[C@]12O[C@H](C[C@]1(O)CO)n1c3ccccc3c3c4c(c5c6ccccc6n2c5c31)CNC4=O [Lestaurtinib] + CCNC(=O)c1noc(-c2cc(C(C)C)c(O)cc2O)c1-c1ccc(CN2CCOCC2)cc1 [Luminespib] (partner 0.01 µM)
Summary of the method: as §1

Cell Line | relative viability ([1]; first compound 0.2 µM) | relative viability ([1]; first compound 0.6325 µM) | relative viability ([1]; first compound 2 µM) | relative viability ([1]; first compound 6.325 µM) | relative viability ([1]; first compound 20 µM) | relative viability (TPCA-1 + Bortezomib; first compound 0.04 µM) | relative viability (TPCA-1 + Bortezomib; first compound 0.1265 µM) | relative viability (TPCA-1 + Bortezomib; first compound 0.4 µM) | relative viability (TPCA-1 + Bortezomib; first compound 1.265 µM) | relative viability (TPCA-1 + Bortezomib; first compound 4 µM) | relative viability (TPCA-1 + Luminespib; first compound 0.04 µM) | relative viability (TPCA-1 + Luminespib; first compound 0.1265 µM) | relative viability (TPCA-1 + Luminespib; first compound 0.4 µM) | relative viability (TPCA-1 + Luminespib; first compound 1.265 µM) | relative viability (TPCA-1 + Luminespib; first compound 4 µM) | relative viability ([2]; first compound 0.005 µM) | relative viability ([2]; first compound 0.01581 µM) | relative viability ([2]; first compound 0.05 µM) | relative viability ([2]; first compound 0.1581 µM) | relative viability ([2]; first compound 0.5 µM)
NCI-H1563 | 0.73 | 0.801 | 0.912 | 0.798 | 0.763 | 0.924 | 0.875 | 0.836 | 0.741 | 0.793 | 0.522 | 0.601 | 0.521 | 0.532 | 0.451 | 0.554 | 0.495 | 0.546 | 0.5 | 0.48
NCI-H1650 | 0.35 | 0.392 | 0.42 | 0.373 | 0.367 | 0.26 | 0.219 | 0.204 | 0.203 | 0.208 | 0.225 | – | 0.188 | 0.185 | 0.197 | 0.183 | 0.195 | 0.188 | 0.164 | 0.18
NCI-H1651 | 0.582 | 0.666 | 0.778 | 0.495 | 0.58 | 0.909 | 0.927 | 0.917 | 0.891 | 0.649 | 0.839 | 0.979 | 0.835 | 0.915 | 1 | 0.866 | 0.938 | 0.897 | 0.806 | 0.461
NCI-H1666 | 0.82 | 0.84 | 0.877 | 0.791 | 0.813 | 0.808 | 0.807 | 0.996 | 0.767 | 0.8 | 1.03 | 0.99 | 1.08 | 1.04 | 1.05 | 1.05 | 1.14 | 1.46 | 0.959 | 0.609
NCI-H1734 | 0.439 | 0.433 | 0.457 | 0.37 | 0.426 | 1.02 | 0.816 | 1.12 | 0.938 | 0.554 | 0.192 | 0.201 | 0.221 | 0.19 | 0.162 | 0.2 | 0.0895 | 0.185 | 0.159 | 0.155
NCI-H1755 | 0.436 | 0.413 | 0.484 | 0.369 | 0.387 | 0.948 | 0.9 | 1.05 | 0.881 | 0.832 | 0.596 | 0.408 | 0.357 | 0.35 | 0.418 | 0.41 | 0.42 | 0.453 | 0.211 | 0.204
NCI-H1792 | 0.931 | 0.875 | 0.882 | 0.74 | 0.767 | 0.97 | 0.924 | 0.84 | 0.964 | 0.559 | 0.429 | 0.237 | 0.446 | 0.501 | 0.367 | – | 0.618 | 0.332 | 0.464 | 0.158
NCI-H1915 | 0.456 | 0.529 | 0.479 | 0.447 | 0.475 | 0.949 | 0.961 | 0.954 | 0.664 | 0.886 | 0.883 | 0.804 | 0.754 | 0.852 | 0.581 | 0.766 | 0.893 | 0.471 | 0.663 | 0.259
NCI-H1975 | 0.321 | 0.298 | 0.32 | 0.269 | 0.301 | 0.327 | 0.417 | 0.321 | 0.437 | 0.26 | 0.577 | 0.275 | 0.2 | 0.199 | 0.129 | 0.538 | 0.171 | 0.199 | 0.137 | 0.159
NCI-H1993 | 0.669 | 0.593 | 0.539 | 0.551 | 0.472 | 1.13 | – | 1.14 | 1.28 | 0.836 | 0.694 | 0.688 | 0.783 | 1.29 | 0.669 | 0.692 | 0.442 | 0.831 | 0.523 | 0.569
NCI-H2009 | 1.05 | 1.01 | 1 | – | 0.977 | 1.25 | 0.921 | 1.07 | 0.516 | 0.536 | 0.977 | 1.05 | 1.01 | 1.02 | 1.03 | 1.13 | 1.08 | 0.993 | 0.858 | 0.637
NCI-H2023 | 0.239 | 0.305 | 0.263 | 0.175 | 0.218 | 1.07 | 0.941 | 1.11 | 0.845 | 0.386 | 0.993 | 0.91 | 0.779 | 0.472 | 0.373 | 0.848 | 0.983 | 0.48 | 0.524 | 0.119
NCI-H2085 | 0.963 | 0.909 | 0.96 | 0.857 | 0.939 | 1.13 | 1.06 | 1.04 | 0.965 | 1.01 | 0.427 | 0.408 | 0.574 | 0.473 | 0.45 | 0.436 | 0.449 | 0.57 | 0.41 | 0.337
NCI-H2087 | 0.635 | 0.7 | 0.621 | 0.529 | 0.639 | 0.777 | 0.709 | 0.666 | 0.815 | 0.455 | 0.171 | 0.176 | 0.156 | 0.15 | 0.141 | 0.158 | 0.253 | 0.163 | 0.148 | 0.165
NCI-H2126 | 0.677 | 0.681 | 0.789 | 0.58 | 0.714 | 1.15 | 1.04 | 1.07 | 1.06 | 1.09 | 0.94 | 0.947 | 0.984 | 0.797 | 0.676 | 0.944 | 0.891 | 0.776 | 0.817 | 0.538
NCI-H2228 | 0.369 | 0.333 | 0.4 | 0.33 | 0.326 | 1.01 | 0.891 | 0.916 | 1.12 | 0.6 | 0.174 | 0.139 | 0.124 | 0.131 | 0.117 | 0.185 | 0.144 | 0.137 | 0.123 | 0.109
NCI-H2347 | 0.44 | 0.429 | 0.478 | 0.448 | 0.426 | 0.945 | – | 0.894 | 0.662 | 1.16 | 0.694 | 0.33 | 0.344 | 0.453 | 0.242 | 0.501 | 0.661 | 0.404 | 0.246 | 0.297
NCI-H2405 | 1.08 | 0.96 | 1.2 | 1.01 | 1.04 | 0.988 | 0.843 | 1.02 | 0.92 | 0.289 | 0.792 | 0.627 | 0.709 | 0.622 | 0.618 | 0.747 | 0.631 | 0.585 | 0.548 | 0.262
NCI-H3122 | 0.195 | 0.213 | 0.206 | 0.191 | 0.206 | 1.09 | 0.983 | 1.08 | 1.01 | 0.975 | 0.106 | 0.0887 | 0.0804 | 0.0762 | 0.0832 | 0.114 | 0.116 | 0.115 | 0.0939 | 0.088
PC-3 [JPC-3] | – | 1.15 | 0.982 | 1.04 | 1.26 | 0.896 | 0.812 | 0.833 | 0.792 | 0.851 | 0.5 | 0.639 | 0.682 | 0.675 | 0.569 | 0.647 | 0.645 | 0.53 | 0.525 | 0.255
PC-14 | 0.145 | 0.166 | 0.136 | 0.131 | 0.142 | 0.903 | 0.787 | 0.936 | 0.785 | 0.574 | 0.133 | 0.165 | 0.177 | 0.146 | 0.143 | 0.154 | 0.154 | 0.172 | 0.108 | 0.151
RERF-LC-KJ | 0.474 | 0.49 | 0.473 | 0.449 | 0.511 | 1.32 | 1.09 | 0.857 | 0.916 | 0.998 | 1.3 | 1.25 | 1.26 | 1.14 | 0.852 | 1.1 | 1.55 | 0.828 | 0.959 | 0.417
SK-LU-1 | 1.12 | 1.03 | 0.942 | 0.829 | 1.02 | 1.26 | 0.962 | 1.1 | 0.879 | 0.739 | 0.232 | 0.203 | 0.212 | 0.206 | 0.215 | 0.206 | 0.22 | 0.177 | 0.203 | 0.215
SW 1573 | 0.774 | 0.845 | 0.869 | 0.546 | 0.856 | 1.07 | 1.19 | 1.1 | 1.11 | 0.834 | 0.186 | 0.181 | 0.217 | 0.204 | 0.188 | 0.218 | 0.236 | 0.182 | 0.315 | 0.131
